ChEMBL document CHEMBL1133785, “Design, synthesis, and biological evaluation of HIV/FIV protease inhibitors incorporating a conformationally constrained macrocycle with a small P3' residue” (Bioorg Med Chem Lett, 2001)
Starred links: 1 amine or outer side, 2 acyl side, 3 side chain; linkers in the order of their positions; H or OH if unused. Non-standard residues stand in square brackets, D forms with d. Residues, ends and D or L forms follow the SMILES beside them. β3hPhe(2R-OH) = O=C([C@H](O)[C@H](Cc1ccccc1)N[*:1])[*:2]

Assays:
[1] = system: Feline immunodeficiency virus; assay: Inhibitory concentration against wild-type feline immunodeficiency virus (FIV-WT) protease at a concentration of 200 uM; type: functional
[2] = target: T1, Human immunodeficiency virus type 1 protease (Human immunodeficiency virus 1, UniProt Q72874); assay: Inhibitory concentration against wild-type human immunodeficiency virus (HIV-WT) protease
[3] = system: Feline immunodeficiency virus; assay: Inhibitory concentration against wild-type feline immunodeficiency virus (FIV-WT) protease; type: functional
[4] = system: Feline immunodeficiency virus; assay: Inhibitory concentration against Feline immunodeficiency virus (FIV) protease; type: functional
[5] = target: T1, Human immunodeficiency virus type 1 protease; assay: Inhibitory concentration against TL3-resistant HIV(L241) mutant
[6] = target: T1, Human immunodeficiency virus type 1 protease; assay: Inhibitory concentration against TL3-resistant HIV(V771) mutant
[7] = target: Human immunodeficiency virus type 1 protease (Human immunodeficiency virus 1, UniProt Q72874, V82A); assay: Inhibitory concentration against TL3-resistant HIV(V82A) mutant
[8] = target: T1, Human immunodeficiency virus type 1 protease; assay: Inhibitory concentration against TL3-resistant HIV(M461) mutant
[9] = target: Human immunodeficiency virus type 1 protease (Human immunodeficiency virus 1, UniProt Q72874, L63P); assay: Inhibitory concentration against TL3-resistant HIV(L63P) mutant
[10] = target: T2, Human immunodeficiency virus type 1 protease (Human immunodeficiency virus 1, UniProt Q72874, G48V); assay: Inhibitory concentration against drug-resistant HIV(G48V) mutant
[11] = target: T3, Human immunodeficiency virus type 1 protease (Human immunodeficiency virus 1, UniProt Q72874, F53L); assay: Inhibitory concentration against TL3-resistant HIV(F53L) mutant
[12] = target: T4, Human immunodeficiency virus type 1 protease (Human immunodeficiency virus 1, UniProt Q72874, V82F); assay: Inhibitory concentration against drug-resistant HIV(V82F) mutant
[13] = target: T1, Human immunodeficiency virus type 1 protease; assay: Inhibitory concentration against human immunodeficiency virus (HIV) protease
[14] = target: T3, Human immunodeficiency virus type 1 protease; assay: Inhibitory concentration against TL3-resistant HIV(F53L) mutant protease; settings: pooled result: one value given for 5 cell lines, strains, targets or settings
[15] = target: T4, Human immunodeficiency virus type 1 protease; assay: Inhibitory concentration against drug-resistant HIV(V82F) mutant protease
[16] = target: T2, Human immunodeficiency virus type 1 protease; assay: Inhibitory concentration against drug-resistant HIV(G48V) mutant protease

Row | SMILES | inhibition at 200 µM [1] | IC50 [2] | IC50 [3] | IC50 [4] | IC50 [7] | IC50 [13] | other results
1 | COC(=O)[C@H](O)[C@H](Cc1ccccc1)NC(=O)[C@@H](NC(=O)[C@H](Cc1ccc(O)cc1)NC(C)=O)C(C)C | 32% | 71000 nM |  |  |  |  | 
2 | CC(C)[C@@H]1NC(=O)[C@@H](NC(=O)C(=O)C(Cc2ccccc2)NC(=O)OC(C)(C)C)Cc2ccc(cc2)OCCCNC1=O (stereo partly specified) |  | 13 nM | 4000 nM |  |  |  | 
3 | CC(=O)N[C@@H](Cc1ccc(O)cc1)C(=O)N[C@H](C(=O)N[C@@H](Cc1ccccc1)[C@@H](O)C(=O)N[C@H]1Cc2ccc(cc2)OCCCNC(=O)[C@H](C(C)C)NC1=O)C(C)C |  |  |  | 27 nM | 11 nM | 6 nM | IC50 [5]: 70 nM; IC50 [6]: 70 nM; IC50 [8]: 70 nM; IC50 [9]: 70 nM; IC50 [10]: 57 nM; IC50 [11]: 70 nM; IC50 [12]: 26 nM
4 | CC(C)[C@@H]1NC(=O)[C@@H](NC(=O)[C@@H](O)[C@H](Cc2ccccc2)NC(=O)OC(C)(C)C)Cc2ccc(cc2)OCCCNC1=O |  | 100 nM | 46000 nM |  |  |  | 
5 | CC(=O)N[C@@H](Cc1ccccc1)C(=O)N[C@H](C(=O)N[C@@H](Cc1ccccc1)[C@@H](O)C(=O)N[C@H]1Cc2ccc(cc2)OCCCNC(=O)[C@H](C(C)C)NC1=O)C(C)C |  |  |  | 35 nM | 12 nM | 7 nM | IC50 [14]: 79 nM; IC50 [15]: 32 nM; IC50 [16]: 94 nM
6 | CC(C)[C@@H]1NC(=O)[C@@H](NC(=O)[C@H](O)[C@H](Cc2ccccc2)NC(=O)OC(C)(C)C)Cc2ccc(cc2)OCCCNC1=O | 43% | 630 nM |  |  |  |  | 
7 | COC(=O)[C@H](O)[C@H](Cc1ccccc1)NC(=O)[C@@H](NC(=O)[C@H](Cc1ccccc1)NC(C)=O)C(C)C | 24% | 113000 nM |  |  |  |  | 
8 | CC(=O)N[C@@H](Cc1c[nH]c2ccccc12)C(=O)N[C@H](C(=O)N[C@@H](Cc1ccccc1)[C@@H](O)C(=O)N[C@H]1Cc2ccc(cc2)OCCCNC(=O)[C@H](C(C)C)NC1=O)C(C)C |  |  |  | 49 nM | 10 nM | 10 nM | IC50 [14]: 49 nM; IC50 [15]: 30 nM; IC50 [16]: 71 nM
9 | CC(=O)N[C@@H](Cc1ccc(O)cc1)C(=O)N[C@H](C(=O)N[C@@H](Cc1ccccc1)[C@@H](O)C(=O)N[C@@H](Cc1ccc(O)cc1)C(=O)N[C@H](C(N)=O)C(C)C)C(C)C (Ac-YV[β3hPhe(2R-OH)]YV-NH2) |  | 212 nM | 560 nM |  |  |  | 
10 | COC(=O)[C@H](O)[C@H](Cc1ccccc1)NC(=O)[C@@H](NC(=O)[C@H](Cc1c[nH]c2ccccc12)NC(C)=O)C(C)C |  | 14000 nM | 66000 nM |  |  |  | 
